# Test results as given in PubChem BioAssay (NCI).
#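 Method: 48-hour compound exposure of cells in 96-well plates, five concentrations, linear interpolation of endpoints. Definition used: TGI = concentration required for complete inhibition of growth.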
# Assays:
# Assay in all cases: inhibition of tumour cell growth, NCI panel, 48 h
# [1] = test system: 786-0 renal
# [2] = test system: A549 NSCLC
# [3] = test system: ACHN renal
# [4] = test system: BT-549 breast
# [5] = test system: CAKI-1 renal
# [6] = test system: CCRF-CEM leukemia
# [7] = test system: COLO 205 colon
# [8] = test system: DU-145 prostate
# [9] = test system: HCC-2998 colon
# [10] = test system: HCT-116 colon
# [11] = test system: HCT-15 colon
# [12] = test system: HL-60(TB) leukemia
# [13] = test system: HOP-62 NSCLC
# [14] = test system: HOP-92 NSCLC
# [15] = test system: HS 578T breast
# [16] = test system: HT29 colon
# [17] = test system: IGROV1 ovarian
# [18] = test system: K-562 leukemia
# [19] = test system: KM12 colon
# [20] = test system: LOX IMVI melanoma
# [21] = test system: M14 melanoma
# [22] = test system: MALME-3M melanoma
# [23] = test system: MCF7 breast
# [24] = test system: MDA-MB-231 breast
# [25] = test system: MDA-MB-435
# [26] = test system: MDA-N
# [27] = test system: MOLT-4 leukemia
# [28] = test system: NCI-H23 lung
# [29] = test system: NCI-H460 lung
# [30] = test system: NCI/ADR-RES ovarian
# [31] = test system: OVCAR-3 ovarian
# [32] = test system: OVCAR-4 ovarian
# [33] = test system: OVCAR-5 ovarian
# [34] = test system: PC-3 prostate
# [35] = test system: RPMI-8226 leukemia
# [36] = test system: RXF 393 renal
# [37] = test system: SF-268 CNS
# [38] = test system: SF-295 CNS
# [39] = test system: SF-539 CNS
# [40] = test system: SK-MEL-2 melanoma
# [41] = test system: SK-MEL-28 melanoma
# [42] = test system: SK-MEL-5 melanoma
# [43] = test system: SK-OV-3 ovarian
# [44] = test system: SN12C renal
# [45] = test system: SNB-19 CNS
# [46] = test system: SNB-75 CNS
# [47] = test system: SR leukemia
# [48] = test system: SW-620 colon
# [49] = test system: T-47D breast
# [50] = test system: TK-10 renal
# [51] = test system: U251 CNS
# [52] = test system: UACC-257 melanoma
# [53] = test system: UACC-62 melanoma
# [54] = test system: UO-31 renal
# [55] = test system: A498 renal
# [56] = test system: EKVX NSCLC
# [57] = test system: NCI-H226 lung
# [58] = test system: NCI-H522 lung
# [59] = test system: OVCAR-8 ovarian
smiles,measurement,setting,value
CCOC(=O)c1c(-c2ccc(OC)cc2)c(C#N)c(=S)n(C2OC(CO)C(O)C(O)C2O)c1-c1ccccc1 (stereo not drawn),TGI,[1],> 100 µM
same,TGI,[2],> 100 µM
same,TGI,[3],> 100 µM
same,TGI,[4],> 100 µM
same,TGI,[5],> 100 µM
same,TGI,[6],> 100 µM
same,TGI,[7],> 100 µM
same,TGI,[8],> 100 µM
same,TGI,[9],> 100 µM
same,TGI,[10],85.3 µM
same,TGI,[11],> 100 µM
same,TGI,[12],> 100 µM
same,TGI,[13],80.7 µM
same,TGI,[14],32.8 µM
same,TGI,[15],70 µM
same,TGI,[16],> 100 µM
same,TGI,[17],> 100 µM
same,TGI,[18],> 100 µM
same,TGI,[19],> 100 µM
same,TGI,[20],> 100 µM
same,TGI,[21],> 100 µM
same,TGI,[22],> 100 µM
same,TGI,[23],> 100 µM
same,TGI,[24],> 100 µM
same,TGI,[25],95.9 µM
same,TGI,[26],> 100 µM
same,TGI,[27],96.5 µM
same,TGI,[28],> 100 µM
same,TGI,[29],> 100 µM
same,TGI,[30],> 100 µM
same,TGI,[31],73 µM
same,TGI,[32],> 100 µM
same,TGI,[33],> 100 µM
same,TGI,[34],> 100 µM
same,TGI,[35],> 100 µM
same,TGI,[36],75.7 µM
same,TGI,[37],> 100 µM
same,TGI,[38],> 100 µM
same,TGI,[39],> 100 µM
same,TGI,[40],> 100 µM
same,TGI,[41],> 100 µM
same,TGI,[42],26.5 µM
same,TGI,[43],> 100 µM
same,TGI,[44],> 100 µM
same,TGI,[45],> 100 µM
same,TGI,[46],> 100 µM
same,TGI,[47],> 100 µM
same,TGI,[48],> 100 µM
same,TGI,[49],> 100 µM
same,TGI,[50],> 100 µM
same,TGI,[51],> 100 µM
same,TGI,[52],> 100 µM
same,TGI,[53],> 100 µM
same,TGI,[54],> 100 µM
CN(C)c1ccc(/C=C(\NC(=O)c2ccccc2)C(=O)NC(CCC(=O)O)C(=O)O)cc1 (stereo not drawn),TGI,[1],> 100 µM
same,TGI,[55],> 100 µM
same,TGI,[2],> 100 µM
same,TGI,[3],> 100 µM
same,TGI,[4],> 100 µM
same,TGI,[5],> 100 µM
same,TGI,[6],> 100 µM
same,TGI,[7],> 100 µM
same,TGI,[8],> 100 µM
same,TGI,[56],> 100 µM
same,TGI,[9],> 100 µM
same,TGI,[10],> 100 µM
same,TGI,[11],> 100 µM
same,TGI,[12],> 100 µM
same,TGI,[13],> 100 µM
same,TGI,[14],> 100 µM
same,TGI,[15],> 100 µM
same,TGI,[16],> 100 µM
same,TGI,[17],> 100 µM
same,TGI,[18],> 100 µM
same,TGI,[19],> 100 µM
same,TGI,[20],> 100 µM
same,TGI,[21],> 100 µM
same,TGI,[22],> 100 µM
same,TGI,[23],> 100 µM
same,TGI,[24],> 100 µM
same,TGI,[25],> 100 µM
same,TGI,[26],> 100 µM
same,TGI,[27],> 100 µM
same,TGI,[57],> 100 µM
same,TGI,[28],> 100 µM
same,TGI,[29],> 100 µM
same,TGI,[58],> 100 µM
same,TGI,[30],> 100 µM
same,TGI,[31],> 100 µM
same,TGI,[32],> 100 µM
same,TGI,[33],> 100 µM
same,TGI,[59],> 100 µM
same,TGI,[34],> 100 µM
same,TGI,[35],> 100 µM
same,TGI,[36],> 100 µM
same,TGI,[37],> 100 µM
same,TGI,[38],> 100 µM
same,TGI,[39],> 100 µM
same,TGI,[40],> 100 µM
same,TGI,[41],> 100 µM
same,TGI,[42],> 100 µM
same,TGI,[43],> 100 µM
same,TGI,[44],> 100 µM
same,TGI,[45],> 100 µM
same,TGI,[46],> 100 µM
same,TGI,[48],> 100 µM
same,TGI,[49],> 100 µM
same,TGI,[50],> 100 µM
same,TGI,[51],> 100 µM
same,TGI,[52],> 100 µM
same,TGI,[53],> 100 µM
same,TGI,[54],> 100 µM
COC(=O)C(Cc1ccccc1)OC(=O)C(N)CC(=O)O (stereo not drawn),TGI,[1],> 100 µM
same,TGI,[2],> 100 µM
same,TGI,[3],> 100 µM
same,TGI,[4],> 100 µM
same,TGI,[5],> 100 µM
same,TGI,[7],> 100 µM
same,TGI,[8],> 100 µM
same,TGI,[56],> 100 µM
same,TGI,[9],> 100 µM
same,TGI,[10],> 100 µM
same,TGI,[11],> 100 µM
same,TGI,[13],> 100 µM
same,TGI,[14],> 100 µM
same,TGI,[15],> 100 µM
same,TGI,[16],> 100 µM
same,TGI,[17],> 100 µM
same,TGI,[18],> 100 µM
same,TGI,[21],> 100 µM
same,TGI,[22],> 100 µM
same,TGI,[23],> 100 µM
same,TGI,[24],> 100 µM
same,TGI,[25],> 100 µM
same,TGI,[26],> 100 µM
same,TGI,[27],> 100 µM
same,TGI,[57],> 100 µM
same,TGI,[28],> 100 µM
same,TGI,[29],> 100 µM
same,TGI,[58],> 100 µM
same,TGI,[30],> 100 µM
same,TGI,[31],> 100 µM
same,TGI,[33],> 100 µM
same,TGI,[59],> 100 µM
same,TGI,[34],> 100 µM
same,TGI,[35],> 100 µM
same,TGI,[36],> 100 µM
same,TGI,[37],> 100 µM
same,TGI,[38],> 100 µM
same,TGI,[39],> 100 µM
same,TGI,[40],> 100 µM
same,TGI,[41],> 100 µM
same,TGI,[42],> 100 µM
same,TGI,[43],> 100 µM
same,TGI,[44],> 100 µM
same,TGI,[45],> 100 µM
same,TGI,[46],> 100 µM
same,TGI,[47],> 100 µM
same,TGI,[48],> 100 µM
same,TGI,[49],> 100 µM
same,TGI,[50],> 100 µM
same,TGI,[52],> 100 µM
same,TGI,[53],> 100 µM
same,TGI,[54],> 100 µM
S=C(S)N1CCN(c2ccc(Cl)c(Cl)c2)CC1,TGI,[1],> 100 µM
same,TGI,[55],44.2 µM
same,TGI,[2],> 100 µM
same,TGI,[3],> 100 µM
same,TGI,[4],> 100 µM
same,TGI,[5],59.8 µM
same,TGI,[6],> 100 µM
same,TGI,[7],33.6 µM
same,TGI,[8],57 µM
same,TGI,[56],> 100 µM
same,TGI,[9],36.6 µM
same,TGI,[10],29.5 µM
same,TGI,[11],> 100 µM
same,TGI,[12],44.3 µM
same,TGI,[13],> 100 µM
same,TGI,[14],75.3 µM
same,TGI,[15],97.2 µM
same,TGI,[16],49.3 µM
same,TGI,[17],84.6 µM
same,TGI,[18],55.8 µM
same,TGI,[19],34.5 µM
same,TGI,[20],31.6 µM
same,TGI,[21],40.7 µM
same,TGI,[22],44.2 µM
same,TGI,[23],70.9 µM
same,TGI,[24],40.7 µM
same,TGI,[25],37.4 µM
same,TGI,[26],35 µM
same,TGI,[58],50.1 µM
same,TGI,[30],> 100 µM
same,TGI,[31],50 µM
same,TGI,[33],> 100 µM
same,TGI,[59],> 100 µM
same,TGI,[34],46.9 µM
same,TGI,[35],45.8 µM
same,TGI,[36],> 100 µM
same,TGI,[37],> 100 µM
same,TGI,[38],> 100 µM
same,TGI,[39],59.4 µM
same,TGI,[40],34.6 µM
same,TGI,[41],62.7 µM
same,TGI,[42],30.5 µM
same,TGI,[44],> 100 µM
same,TGI,[45],> 100 µM
same,TGI,[46],> 100 µM
same,TGI,[48],52.9 µM
same,TGI,[49],42.6 µM
same,TGI,[50],> 100 µM
same,TGI,[51],90.7 µM
